# Source: US12064402B2, “Binge behavior regulators” (Clearmind Medicine Inc., priority 2014, dated 2024)
# What was measured:
# [1] = amount of alcoholic beverage drunk in a binge session after the drinking regulator; type: in vivo; settings: 70 mg of drinking regulator; for amount of beer drunk in a binge session: reduced from 1.5 liter; for amount of wine drunk in a binge session: reduced from 1000 ml
# Procedure: In exemplary embodiments, administration of the amount of 70 mg of drinking regulator selected form Compound 1 or Compound 2 described herein reduced the amount of beer drunk in a binge session from 1.5 liter to 0.5 liter, or the amount of wine drunk in a binge session from 1000 ml to 250 ml.
# [2] = over six months, when used with counseling; cited from earlier work
Structure (SMILES),amount of beer drunk in a binge session [1] [L],amount of wine drunk in a binge session [1] [mL],cut drinking [2] [%]
"COc1ccc2c(c1)CC(N)C2 (centres unmarked) [Compound 1, 5-methoxy-2-aminoindan]",0.5,250,–
"COc1cc2c(cc1OC)CC(N)C2 [Compound 2, 5,6-dimethoxy-2-aminoindan]",0.5,250,–
C=C1CC[C@@]2(O)[C@H]3Cc4ccc(O)c5c4[C@@]2(CCN3CC2CC2)[C@H]1O5 [Nalmefene],–,–,61
